Experiment: xn = mol fraction of the nth substance listed
Details: 101 kPa

CCCC[n+]1ccn(C)c1.CS(=O)(=O)[O-] + O
Details	electrical conductivity [S/m]	viscosity [mPa·s]
298.15 K, x2 = 0.6542	–	31.9
298.15 K, x2 = 0.7014	–	25.2
298.15 K, x2 = 0.7494	–	19.09
298.15 K, x2 = 0.796	1.23	–
298.15 K, x2 = 0.951	4.06	–
298.15 K, x2 = 0.975	–	1.643
299.15 K, x1 = 0.008	2.11	–
299.15 K, x2 = 0.892	2.96	–
299.15 K, x2 = 0.951	4.12	–
300.15 K, x1 = 0.004	1.24	–
301.15 K, x2 = 0.861	2.53	–
302.15 K, x2 = 0.861	2.61	–
305.15 K, x1 = 0.004	1.37	–
305.15 K, x2 = 0.861	2.84	–
306.15 K, x1 = 0.004	1.4	–
307.15 K, x1 = 0.008	2.51	–
308.15 K, x1 = 0.019	4.06	–
308.15 K, x2 = 0.861	3.08	–
308.15 K, x2 = 0.968	4.94	–
309.15 K, x2 = 0.968	5.03	–
310.15 K, x1 = 0.019	4.22	–
310.15 K, x2 = 0.861	3.25	–
310.15 K, x2 = 0.892	4.03	–
310.15 K, x2 = 0.968	5.11	–
311.15 K, x2 = 0.861	3.35	–
313.15 K, x2 = 0.892	4.42	–
313.15 K, x2 = 0.9004	–	3.71
315.15 K, x2 = 0.968	5.63	–
316.15 K, x2 = 0.951	6.44	–
317.15 K, x1 = 0.004	1.7	–
317.15 K, x2 = 0.951	6.52	–
317.15 K, x2 = 0.968	5.83	–
318.15 K, x2 = 0.929	5.89	–
319.15 K, x2 = 0.861	4.14	–
319.15 K, x2 = 0.968	6.08	–
320.15 K, x1 = 0.004	1.79	–
320.15 K, x1 = 0.019	5.15	–
320.15 K, x2 = 0.892	5.23	–
320.15 K, x2 = 0.968	6.17	–
321.15 K, x2 = 0.968	6.3	–
322.15 K, x2 = 0.892	5.48	–
322.15 K, x2 = 0.929	6.42	–
323.15 K, x2 = 0.8015	–	6.16
323.15 K, x2 = 0.9503	–	1.503
323.15 K, x2 = 0.951	7.08	–
324.15 K, x1 = 0.004	1.91	–
324.15 K, x1 = 0.008	3.39	–
324.15 K, x1 = 0.019	5.48	–
324.15 K, x2 = 0.892	5.72	–
325.15 K, x1 = 0.008	3.45	–
325.15 K, x1 = 0.019	5.57	–
325.15 K, x2 = 0.929	6.93	–
326.15 K, x1 = 0.004	1.98	–
326.15 K, x2 = 0.929	6.92	–
326.15 K, x2 = 0.968	6.88	–
327.15 K, x2 = 0.861	5.02	–
327.15 K, x2 = 0.929	7.05	–
328.15 K, x1 = 0.019	5.74	–
328.15 K, x2 = 0.951	7.6	–
329.15 K, x2 = 0.968	7.25	–
331.15 K, x1 = 0.019	6.08	–
331.15 K, x2 = 0.861	5.49	–
332.15 K, x2 = 0.929	7.74	–
332.15 K, x2 = 0.951	8.16	–
333.15 K, x2 = 0.7014	–	8.05
333.15 K, x2 = 0.8015	–	4.67
333.15 K, x2 = 0.9004	–	2.3
333.15 K, x2 = 0.9503	–	1.24
333.15 K, x2 = 0.968	7.66	–
334.15 K, x2 = 0.968	7.78	–
335.15 K, x1 = 0.004	2.24	–
336.15 K, x1 = 0.004	2.27	–
336.15 K, x2 = 0.951	8.7	–
337.15 K, x2 = 0.861	6.31	–
337.15 K, x2 = 0.929	8.44	–
338.15 K, x1 = 0.019	6.52	–
338.15 K, x2 = 0.861	6.33	–
338.15 K, x2 = 0.951	8.96	–
339.15 K, x2 = 0.968	8.41	–
341.15 K, x2 = 0.892	7.89	–
342.15 K, x1 = 0.004	2.44	–
342.15 K, x2 = 0.861	6.89	–
342.15 K, x2 = 0.892	7.96	–
343.15 K, x1 = 0.004	2.46	–
343.15 K, x2 = 0.6542	–	7.44
343.15 K, x2 = 0.8521	–	2.67
343.15 K, x2 = 0.892	8.05	–
344.15 K, x2 = 0.929	9.45	–
345.15 K, x1 = 0.004	2.53	–
345.15 K, x2 = 0.951	10	–
345.15 K, x2 = 0.968	8.98	–
346.15 K, x1 = 0.008	4.56	–
346.15 K, x2 = 0.951	10.1	–
347.15 K, x2 = 0.861	7.63	–
347.15 K, x2 = 0.892	8.62	–
348.15 K, x1 = 0.004	2.61	–
348.15 K, x2 = 0.892	8.76	–
349.15 K, x2 = 0.861	7.79	–
349.15 K, x2 = 0.951	10.6	–
350.15 K, x1 = 0.019	7.75	–
352.15 K, x1 = 0.019	7.98	–
352.15 K, x2 = 0.951	10.9	–
353.15 K, x1 = 0.004	2.76	–
353.15 K, x2 = 0.861	8.33	–
353.15 K, x2 = 0.951	11.1	–
354.15 K, x2 = 0.861	8.44	–
355.15 K, x1 = 0.004	2.83	–
355.15 K, x2 = 0.968	10.3	–
356.15 K, x1 = 0.004	2.82	–
357.15 K, x1 = 0.004	2.86	–
357.15 K, x2 = 0.929	11.3	–
357.15 K, x2 = 0.951	11.3	–
358.15 K, x2 = 0.892	10.1	–
